Test results as given in patent US9700051B2, “Use of squalamine or analogue as a disinfecting agent” (ASSISTANCE PUBLIQUE—HOPITAUX DE MARSEILLE, priority 2012, dated 2017).
Converted amounts (≈) assume the structure as drawn. Read-outs that look alike come from different tables or passages of the source.

Columns and labels:
[1] = tested on: Pseudomonas aeruginosa DSM 939 (ATCC 15442); assay: Disinfecting antibacterial action on infected nebulizer as per standard FR-EN 1040; format: cell-based; conditions: aqueous solution 0.5 g/l, within 1 hour
Procedure: (§1) In the different tests below the strains used were Pseudomonas aeruginosa DSM 939 (ATCC 15442), Staphylococcus aureus DSM 799 (ATCC 6538), Candida albicans DSM 1386 (ATCC 10231) and Aspergillus niger ATCC 16404.
(§2) The microbial contamination of nebulizers was obtained in vitro by soaking the inner part of nebulizers (Pari LC, SPRINT SP, Pari, Germany) in a bacterial suspension prepared in Mueller Hinton broth containing 1·10^8 to 5·10^8 cfu/mL of bacteria. Disinfection was performed by soaking this same part in a solution of sterile water containing squalamine for 1 h at a determined concentration of 0.5 g/L for the bacteria under consideration (S. aureus or P. aeruginosa). The nebulizer was then rinsed with two successive sterile water solutions. The bacterial count was performed on the second wash bath on Tryptone Soya Agar (24 h).

[2] = tested on: Staphylococcus aureus DSM 799 (ATCC 6538); assay: as above; format: cell-based; conditions: aqueous solution 0.5 g/l, within 1 hour
Procedure: as §1, §2

[3] = tested on: Candida albicans DSM 1386 (ATCC 10231); assay: Disinfecting antifungal activity on infected nebulizer as per standard FR-EN 1275; format: cell-based; conditions: aqueous solution 0.5 g/l, 1 h
Procedure: as §1
(§3) Nebulizer contamination with fungi was obtained in vitro by soaking the inner part of nebulizers (Pari LC, SPRINT SP, Pari, Germany) in 1·10^7 fungi suspension at 5·10^7 cfu/mL prepared in Sabouraud broth. After incubation the nebulizer was soaked in sterile water containing squalamine at the determined concentrations in relation to the fungal strains under consideration (i.e. 0.5 g/L for C. albicans (1 hour soaking) and 2 g/l for A. niger (6 h soaking). The nebulizer was then rinsed with two successive solutions of sterile water. The fungal count was performed on the second wash bath. The count of fungal colonies was performed on malt extract agar-agar (48 h).

[4] = tested on: Aspergillus niger ATCC 16404; assay: as above; format: cell-based; conditions: for log reduction of viable spore cells of A. Niger: 2 g/l, 6 hours; for log reduction in viable cells of A. niger: aqueous solution 0.5 g/l, 1 h
Procedure: as §1
as §3, with “0.5 g/L for C. albicans (1 hour soaking) and 2 g/l for A. niger (6 h soaking).” left out

S. aureus DSM 799 [5] = assay: In vitro model of nebulizer disinfection with aqueous solution; format: cell-based, Staphylococcus aureus; conditions: for log reduction for bacteria (S. aureus): 80 mg/ml; for log reduction for bacteria (S. aureus) / log reduction in viable cells of S. aureus: 20 minutes; for log reduction in viable cells of S. aureus: 0.5 g/l; for dose needed to ensure nebulizer disinfection: S. aureus DSM 799
Excerpt: as §1
(§4) Nebulizers of Pari LC type were infected with bacteria (S. aureus and P. aeruginosa) via a suspension calibrated at 10^8 cfu/ml, and with fungi (C. albicans and A. niger) via a suspension calibrated at 10^7 cfu/ml. These nebulizers were then disinfected by soaking in a squalamine solution for 20 min, Glutaraldehyde and korsolex (peracetic acid) being used as inhibition control.
(§5) The microbial contamination of the nebulizer was obtained in vitro by soaking the inner part of the nebulizer (Pari LC, SPRINT SP, Pari, Germany) in a bacterial suspension prepared in Mueller Hinton broth containing 1·10^8 to 5·10^8 cfu/ml of bacteria (NF EN 1040, 1997) for 20 minutes. Disinfection was obtained by soaking this same part in a sterile water solution containing squalamine or ASD 2 for […] at the determined concentration in relation to the bacteria under consideration. For the fungi, suspensions of 1·10^7 to 5·10^7 cfu/ml (NF EN 1275, 1997) were prepared in Sabouraud broth and after incubation the nebulizer was soaked in sterile water containing squalamine or ASD 2. The nebulizer was then rinsed with two successive solutions of sterile water. The bacterial or fungal count was performed on the second wash bath. The counting of bacterial or fungal colonies was conducted on Tryptone Soya Agar for 24 hours for bacterial growth and on malt extract agar-agar for fungi at 37° C. for 48 hours.
(§6) The bactericidal and fungicidal test was performed three times in independent experiments and each bacterium and mould was evaluated separately. The concentration of squalamine and ASD 2 was increased until the required bactericidal and fungicidal activity was obtained. The disinfection time was set at 20 minutes for the first case and subsequently extended to 6 hours for A. Niger.

P. aeruginosa DSM 939 [6] = assay: as above; format: cell-based, Pseudomonas aeruginosa; conditions: for log reduction for bacteria (P. aeruginosa): 80 mg/ml; for log reduction for bacteria (P. aeruginosa) / log reduction in viable cells of P. aeruginosa: 20 minutes; for log reduction in viable cells of P. aeruginosa: 0.5 g/l; for dose needed to ensure nebulizer disinfection: P. aeruginosa DSM 939
Excerpt: as §1, §4, §5, §6

C. albicans DSM 1386 [7] = assay: as above; format: cell-based, Candida albicans; conditions: for log reduction for C. albicans: 190 mg/ml; for log reduction in viable cells of C. albicans: 0.5 g/l, 20 minutes; for dose needed to ensure nebulizer disinfection: C. albicans DSM 1386
Excerpt: as §1, §4, §5, §6

A. niger ATCC 16404 [8] = assay: as above; format: cell-based, Aspergillus niger; conditions: for log reduction in viable cells of A. niger: 2 g/l, within 6 hours; for concentration enabling a fungicidal effect (with spore eradication) on A. niger: 6 hours; for dose needed to ensure nebulizer disinfection: A. niger ATCC 16404; for decrease for A. Niger: first attempt, 80 to 190 mg/ml, 20 minutes
Excerpt: as §1, §4, §5, §6

A. niger ATCC 16404 [9] = assay: Minimum Inhibitory Concentration (MIC); format: cell-based; conditions: Aspergillus niger, ATCC16404
Excerpt: as §1
(§7) 4.2.1) The nebulizers used were infected with different bacterial suspensions (S. aureus and P. aeruginosa) calibrated at 10^8 cfu/ml or fungal suspensions (C. albicans and A. niger) calibrated at 10^7 cfu/ml. In a preliminary set of experiments, values of Minimum Inhibitory Concentration (MIC) and Time Kill of squalamine and ASD 2 were determined against chosen reference bacteria and fungi (MIC only). […] A time of 20 minutes was defined to carry out nebulizer disinfection using squalamine whilst korsolex PAA and the 2% solution of glutaraldehyde were used for a time of 15 minutes following the manufacturers' instructions to obtain disinfecting properties. At a first attempt, it was able to be shown that the use of a dose of 80 mg/ml squalamine or ASD-2 for 20 minutes leads to a 2- and 3-log reduction for bacteria whilst a 2-log reduction for C. albicans was only obtained when using a concentration of squalamine or ASD-2 of 190 mg/ml. […] Nonetheless, squalamine and ASD 2 used at a concentration stronger than 0.5 g/l are capable of obtaining a 5-log10 reduction in viable cells of bacteria such as S. aureus, P. aeruginosa and a 4-log10 reduction for fungi such as C. albicans with a cycle of 20 min (FIG. 2A). On the other hand, for A. niger, the concentration enabling a fungicidal effect to be obtained (i.e. not only fungistatic but additionally with spore eradication) was higher than for the bacteria and over a longer time (2 g/l for 6 hours) (FIG. 2B).

C. albicans DSM 1386 [10] = assay: Minimum Inhibitory Concentration (MIC); format: cell-based; conditions: Candida albicans, DSM1386
Excerpt: as §1, §7

P. aeruginosa DSM 939 [11] = assay: Minimum Inhibitory Concentration (MIC); format: cell-based; conditions: Pseudomonas aeruginosa, DSM939
Excerpt: as §1, §7

S. aureus DSM 799 [12] = assay: Minimum Inhibitory Concentration (MIC); format: cell-based; conditions: Staphylococcus aureus, DSM799
Excerpt: as §1, §7

spores of A. Niger = conditions: acid glutaraldehyde 0.5%; within 100 minutes; cited from earlier work
[13] = Cutaneous toxicity on the backs of shaven mice; format: in vivo; conditions: concentrations in aqueous solution of 2 000
Excerpt: Cutaneous toxicity was examined over a period of 15 days by applying a squalamine ointment onto the backs of shaven mice (batch of 10 mice).

[14] = Effect on plastic or metallic material (corrosion)
S. aureus = conditions: topical lipophilic formulation, 0.5 to 5 mg/ml, 10^6 cfu/ml, cited from earlier work
A. niger = conditions: in vitro, within 24 hours; cited from earlier work

Row | Compound | log reduction of viable cells of P. aeruginosa [1] [log] | log reduction of viable cells of S. aureus [2] [log] | log reduction in viable cells of C. albicans [3] [log] | log reduction of viable spore cells of A. Niger [4] [log] | log reduction in viable cells of A. niger [4] [log] | log reduction for bacteria (S. aureus) (S. aureus DSM 799 [5]) [log] | log reduction in viable cells of S. aureus (S. aureus DSM 799 [5]) [log] | dose needed to ensure nebulizer disinfection (S. aureus DSM 799 [5]) [mg/L] | log reduction for bacteria (P. aeruginosa) (P. aeruginosa DSM 939 [6]) [log] | log reduction in viable cells of P. aeruginosa (P. aeruginosa DSM 939 [6]) [log] | dose needed to ensure nebulizer disinfection (P. aeruginosa DSM 939 [6]) [mg/L] | log reduction for C. albicans (C. albicans DSM 1386 [7]) [log] | log reduction in viable cells of C. albicans (C. albicans DSM 1386 [7]) [log] | dose needed to ensure nebulizer disinfection (C. albicans DSM 1386 [7]) [mg/L] | log reduction in viable cells of A. niger (A. niger ATCC 16404 [8]) [log] | concentration enabling a fungicidal effect (with spore eradication) on A. niger (A. niger ATCC 16404 [8]) [g/L] | dose needed to ensure nebulizer disinfection (A. niger ATCC 16404 [8]) [mg/L] | decrease for A. Niger (A. niger ATCC 16404 [8]) | MIC (A. niger ATCC 16404 [9]) [µg/mL] | MIC (C. albicans DSM 1386 [10]) [µg/mL] | other results
1 | CC(C)CCC[C@@H](C)[C@H]1CCC2C3C(CC[C@@]21C)[C@@]1(C)CC[C@H](O)CC1C[C@@H]3NCCCCN (stereo partly drawn) [ASD 2] | 8 | 8 | 6 | 4 | 6 | 2 | 5 | 210 | 3 | 5 | 130 | 2 | 4 | 500 | 4 | 2 | 2000 | no significant decrease | 8 (≈ 16.8 µM) | 8 (≈ 16.8 µM) | MIC (P. aeruginosa DSM 939 [11]): 8 µg/mL (≈ 16.8 µM); MIC (S. aureus DSM 799 [12]): 2 µg/mL (≈ 4.21 µM)
2 | O=CCCCC=O [acid glutaraldehyde, glutaraldehyde] |  |  |  |  |  |  |  |  |  |  |  |  |  |  |  |  |  |  |  |  | log reduction in the number of spores of A. Niger (spores of A. Niger): 1 log
3 | CC(C)[C@@H](CC[C@@H](C)[C@H]1CCC2C3C(CC[C@@]21C)[C@@]1(C)CC[C@H](NCCCNCCCCN)CC1C[C@H]3O)OS(=O)(=O)O (stereo partly drawn) [squalamine] | 8 | 8 | 6 | 4 | 6 | 2 | 5 | 210 | 3 | 5 | 130 | 2 | 4 | 500 | 4 | 2 | 2000 | no significant decrease | 16 (≈ 25.5 µM) | 16 (≈ 25.5 µM) | log reduction of spores ([4]; aqueous solution of 2 g/l): 4 log; MIC (P. aeruginosa DSM 939 [11]): 4 µg/mL (≈ 6.37 µM); MIC (S. aureus DSM 799 [12]): 2 µg/mL (≈ 3.18 µM); cutaneous toxicity [13]: do not cause cutaneous toxicity; degradation of the equipment treated and/or in contact with the product [14]: do not induce any degradation; log reduction of S. aureus (S. aureus; within 24 hours): 4 log; log reduction of S. aureus (S. aureus; within 48 hours): 5 log; log reduction of A. niger (A. niger): 4 log
